# Test results as given in US11739070B2, “C5A receptor modulators” (IDORSIA PHARMACEUTICALS LTD, priority 2018, dated 2023).
# Molecular target: T1, C5AR1 (Homo sapiens, UniProt P21730)
# T1 construct: host or cells: CHO-K1
# T1 sequence (P21730 1-350): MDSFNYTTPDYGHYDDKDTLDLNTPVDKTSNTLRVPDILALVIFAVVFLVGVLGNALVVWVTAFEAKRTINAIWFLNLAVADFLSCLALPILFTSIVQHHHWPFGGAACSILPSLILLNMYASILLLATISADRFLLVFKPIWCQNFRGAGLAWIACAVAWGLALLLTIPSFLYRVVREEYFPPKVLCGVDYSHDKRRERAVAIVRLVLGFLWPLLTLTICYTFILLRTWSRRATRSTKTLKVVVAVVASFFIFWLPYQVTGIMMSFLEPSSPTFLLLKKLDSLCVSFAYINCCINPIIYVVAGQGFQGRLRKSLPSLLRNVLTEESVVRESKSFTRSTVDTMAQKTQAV
# Assay: hC5a DISCO IC50 assay (PathHunter beta-arrestin, antagonist mode)
# Assay type: cell-based
# Details: CHO-K1 C5AR1 beta-arrestin cell line; antagonist vs 1-10 nM C5a agonist; geometric mean values; read-out: C5aR IC50
# In short: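 Antagonist added first, then 1-10 nM C5a agonist; cells incubated 1.5 h at 37 °C. Beta-arrestin signal developed with PathHunter detection reagent, 45 min at RT. IC50 in nmol/l from serial antagonist dilutions, reported as geometric mean of several measurements.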
row,Compound,IC50 [nM]
1,"COCCN(C)Cc1cccc(F)c1N1CC[C@@H](n2c(=O)n(Cc3ccccc3C(F)(F)F)c3c(OC)cccc32)C1 [Example 139, 1-[(R)-1-(2-Fluoro-6-{[(2-methoxy-ethyl)-methyl-amino]-methyl}-phenyl)-pyrrolidin-3-yl]-4-methoxy-3-(2-trifluoromethyl-benzyl)-1,3-dihydro-benzoimidazol-2-one]",227
2,"CCN(CCO)Cc1cccc(F)c1N1CC[C@@H](n2c(=O)n(Cc3ccccc3C(F)(F)F)c3c(OC)cccc32)C1 [Example 140, 1-[(R)-1-(2-{[Ethyl-(2-hydroxy-ethyl)-amino]-methyl}-6-fluoro-phenyl)-pyrrolidin-3-yl]-4-methoxy-3-(2-trifluoromethyl-benzyl)-1,3-dihydro-benzoimidazol-2-one]",1030
3,"COc1cccc2c1n(Cc1ccccc1C(F)(F)F)c(=O)n2[C@@H]1CCN(c2c(F)cccc2CN(CCO)CCO)C1 [Example 141, 1-[(R)-1-(2-{[Bis-(2-hydroxy-ethyl)-amino]-methyl}-6-fluoro-phenyl)-pyrrolidin-3-yl]-4-methoxy-3-(2-trifluoromethyl-benzyl)-1,3-dihydro-benzoimidazol-2-one]",2130
4,"COCC(C)NCc1cccc(F)c1N1CC[C@@H](n2c(=O)n(Cc3ccccc3C(F)(F)F)c3c(OC)cccc32)C1 (stereo partly drawn) [Example 142, 1-((R)-1-{2-Fluoro-6-[(2-methoxy-1-methyl-ethylamino)-methyl]-phenyl}-pyrrolidin-3-yl)-4-methoxy-3-(2-trifluoromethyl-benzyl)-1,3-dihydro-benzoimidazol-2-one]",108
5,"COc1cccc2c1n(Cc1ccccc1C(F)(F)F)c(=O)n2[C@@H]1CCN(c2c(F)cccc2CN2CC(OC)C2)C1 [Example 143, 1-{(R)-1-[2-Fluoro-6-(3-methoxy-azetidin-1-ylmethyl)-phenyl]-pyrrolidin-3-yl}-4-methoxy-3-(2-trifluoromethyl-benzyl)-1,3-dihydro-benzoimidazol-2-one]",108
6,"COc1cccc2c1n(Cc1ccccc1C(F)(F)F)c(=O)n2C1CCN(C(=O)OC(C)(C)C)C(C)C1 (centres unmarked) [Example 144, 4-[4-Methoxy-2-oxo-3-(2-trifluoromethyl-benzyl)-2,3-dihydro-benzoimidazol-1-yl]-2-methyl-piperidine-1-carboxylic acid tert-butyl ester]",312
7,"COc1cccc2c1n(Cc1ccccc1C(F)(F)F)c(=O)n2C1CCN(c2c(F)cccc2C=O)C(C)C1 (centres unmarked) [Example 145, 3-Fluoro-2-{4-[4-methoxy-2-oxo-3-(2-trifluoromethyl-benzyl)-2,3-dihydro-benzoimidazol-1-yl]-2-methyl-piperidin-1-yl}-benzaldehyde]",16
8,"COc1cccc2c1n(Cc1ccccc1C(F)(F)F)c(=O)n2C1CCN(C(=O)OC(C)(C)C)CC1C (centres unmarked) [Example 146, 4-[4-Methoxy-2-oxo-3-(2-trifluoromethyl-benzyl)-2,3-dihydro-benzoimidazol-1-yl]-3-methyl-piperidine-1-carboxylic acid tert-butyl ester]",201
9,"COc1cccc2c1n(Cc1ccccc1C(F)(F)F)c(=O)n2C1CCN(c2c(C)cccc2F)CC1C (centres unmarked) [Example 147, 1-[1-(2-Fluoro-6-methyl-phenyl)-3-methyl-piperidin-4-yl]-4-methoxy-3-(2-trifluoromethyl-benzyl)-1,3-dihydro-benzoimidazol-2-one]",20
10,"COc1cccc2c1n(Cc1ccccc1C(F)(F)F)c(=O)n2[C@@H]1CCN(c2c(F)cccc2C(C)OC)C1 (stereo partly drawn) [Example 148, 1-{(R)-1-[2-Fluoro-6-(1-methoxy-ethyl)-phenyl]-pyrrolidin-3-yl}-4-methoxy-3-(2-trifluoromethyl-benzyl)-1,3-dihydro-benzoimidazol-2-one]",28
11,"Cc1cccc(F)c1N1CC[C@@H](n2c(=O)n(Cc3ccccc3C(F)(F)F)c3c(OC4COC4)cccc32)C1 [Example 149, 1-[(R)-1-(2-Fluoro-6-methyl-phenyl)-pyrrolidin-3-yl]-4-(oxetan-3-yloxy)-3-(2-trifluoromethyl-benzyl)-1,3-dihydro-benzoimidazol-2-one]",14
12,"Cc1cccc(F)c1N1CC[C@@H](n2c(=O)n(Cc3ccccc3C(F)(F)F)c3c(OCCO)cccc32)C1 [Example 150, 1-[(R)-1-(2-Fluoro-6-methyl-phenyl)-pyrrolidin-3-yl]-4-(2-hydroxy-ethoxy)-3-(2-trifluoromethyl-benzyl)-1,3-dihydro-benzoimidazol-2-one]",11
13,"Cc1cccc(F)c1N1CC[C@@H](n2c(=O)n(Cc3ccccc3C(F)(F)F)c3c(OCC4COC(C)(C)O4)cccc32)C1 (stereo partly drawn) [Example 151, 4-(2,2-Dimethyl-[1,3]dioxolan-4-ylmethoxy)-1-[(R)-1-(2-fluoro-6-methyl-phenyl)-pyrrolidin-3-yl]-3-(2-trifluoromethyl-benzyl)-1,3-dihydro-benzoimidazol-2-one]",31
14,"Cc1cccc(F)c1N1CC[C@@H](n2c(=O)n(Cc3ccccc3C(F)(F)F)c3c(OCC(O)CO)cccc32)C1 (stereo partly drawn) [Example 152, 4-(2,3-Dihydroxy-propoxy)-1-[(R)-1-(2-fluoro-6-methyl-phenyl)-pyrrolidin-3-yl]-3-(2-trifluoromethyl-benzyl)-1,3-dihydro-benzoimidazol-2-one]",38
15,"COc1cccc2c1n(Cc1cncnc1C(F)(F)F)c(=O)n2[C@@H]1CCN(c2c(F)cccc2C#N)C1 [Example 153, 3-Fluoro-2-{(R)-3-[4-methoxy-2-oxo-3-(4-trifluoromethyl-pyrimidin-5-ylmethyl)-2,3-dihydro-benzoimidazol-1-yl]-pyrrolidin-1-yl}-benzonitrile]",215
16,"COc1cccc2c1n(Cc1ccccc1C(F)(F)F)c(=O)n2[C@@H]1CCN(c2c(F)cccc2[N+](=O)[O-])C1 [Example 154, 1-[(R)-1-(2-Fluoro-6-nitro-phenyl)-pyrrolidin-3-yl]-4-methoxy-3-(2-trifluoromethyl-benzyl)-1,3-dihydro-benzoimidazol-2-one]",23
17,"COc1cccc2c1n(Cc1ccccc1C(F)(F)F)c(=O)n2[C@@H]1CCN(c2c(N)cccc2F)C1 [Example 155, 1-[(R)-1-(2-Amino-6-fluoro-phenyl)-pyrrolidin-3-yl]-4-methoxy-3-(2-trifluoromethyl-benzyl)-1,3-dihydro-benzoimidazol-2-one]",15
18,"COc1cccc2c1n(Cc1ccccc1C(F)(F)F)c(=O)n2[C@@H]1CCN(c2c(F)cccc2Br)C1 [Example 156, 1-[(R)-1-(2-Bromo-6-fluoro-phenyl)-pyrrolidin-3-yl]-4-methoxy-3-(2-trifluoromethyl-benzyl)-1,3-dihydro-benzoimidazol-2-one]",21
19,"COc1cccc2c1n(Cc1ccccc1C(F)(F)F)c(=O)n2[C@@H]1CCN(c2nncc(Cl)c2Cl)C1 [Example 157, 1-[(R)-1-(4,5-Dichloro-pyridazin-3-yl)-pyrrolidin-3-yl]-4-methoxy-3-(2-trifluoromethyl-benzyl)-1,3-dihydro-benzoimidazol-2-one]",630
20,"COc1cccc2c1n(Cc1ccccc1C(F)(F)F)c(=O)n2[C@@H]1CCN(c2c(Cl)cnnc2Cl)C1 [Example 158, 1-[(R)-1-(3,5-Dichloro-pyridazin-4-yl)-pyrrolidin-3-yl]-4-methoxy-3-(2-trifluoromethyl-benzyl)-1,3-dihydro-benzoimidazol-2-one]",683
